From US8039430B2 (University of Wollongong, priority 2005, dated 2011)
Structures can show the parent of a compound that is named as a salt.

Experiments:
[1] = system: Methicillin-Resistant Staphylococcus aureus (ATCC 43300); assay: MIC determination by micro-broth dilution (NCCLS), methicillin-resistant S. aureus; type: cell-based; details: ATCC43300, Example 1 compounds, Mueller Hinton II broth, 24 hours, 37° C.
Description: (§1) Antibacterial Assay Methods for Staphylococcus aureus Mu50 (ATCC 700699), Methicillin-Resistant Staphylococcus aureus (ATCC 43300), Multi-Drug-Resistant Staphylococcus epidermidis (ATCC 700562) Compounds
(§2) The compounds were stored at room temperature in the dark prior to use. Each compound was solubilized in DMSO to a final concentration of 40 mg/mL. The stock material was diluted to a concentration equivalent to two times the final in-well high test concentration (100 μg/mL for all experimental compounds) in Mueller Hinton II broth. […] Vancomycin and oxacillin were obtained from Sigma Aldrich Chemical Company and were used as positive and/or negative control compounds in the reported assays at high test concentrations of 100, 25 and 100 μg/mL respectively.
(§3) The bacterial strains employed in these assays were obtained from the American Type Culture Collection (ATCC). All of the bacterial strains were propagated as recommended by the ATCC. Each strain was stored as a frozen glycerol stock at −80° C. and a 10 μL loop of the frozen stocks was used to inoculate each culture for these assays.
(§4) The susceptibility of the above microorganisms to the test compounds was evaluated by determining the MIC of each compound using micro-broth dilution analysis according to the methods recommended by the NCCLS. All microbial strains were obtained from American Type Culture Collections (ATCC) and cultured according to the suppliers recommendations. Evaluation of the susceptibility of each organism against the test compounds included a positive control antibiotics Vancomycin and Oxacillin. For each organism, a standardized inoculum was prepared by direct suspension of freshly plated colonies in Mueller Hinton II broth to an optical density 625 nm (OD625) of 0.1 (equivalent to a 0.5 McFarland standard). The suspended inoculum was diluted to a concentration of approximately 1×10^6 colony forming units per milliliter (CFU/mL) and 100 μL placed into triplicate wells of a 96-well plate containing 100 μL of test compound serially diluted 2-fold in Mueller Hinton II broth. One hundred microliters of the inoculum was also added to triplicate wells containing 100 μL of two-fold serial dilutions of a positive control antibiotic and to wells containing 100 μL of media only. This dilution scheme yielded final concentrations for each microbial organism estimated to be 5×10^5 CFU/mL (verified by colony quantification on appropriate agar plates, data is not presented). Test compound concentrations ranged from a high-test of 1:2 (100 μg/mL)) to a low test of 1:2048 (0.1 μg/mL) using a two-fold dilution scheme. The plates were incubated for 24 hours at 37° C., and the microbial growth at each concentration of compound was determined by measuring the optical density at 625 nm on a Molecular Devices SpectraMax Plus-384 plate reader.
(§5) Microsoft Excel 2003 was used to analyze and graph the data, and the MIC (minimal inhibitory concentration) was determined from the resulting data.

[2] = system: #987 E. faecium van B ST39; assay: Antibacterial assay (MIC), VRE strain #987, Enterococossel Broth, Example 1; type: cell-based, Enterococcus faecium; details: Enterococcus faecium; Example 1 compounds; VRE #987 E. faecium van B; 24 hrs, 37° C.; read-out: 987 (minimum inhibitory concentration)
Description: (§6) Antibacterial Assay Method for Staphylococcus aureus (ATCC 6538P) and Enterococcus faecium
(§7) #820 E. faecium van A ST17 #987 E. faecium van B ST39
(§8) Compounds are accurately weighed out (between approx. 1-2 mg) and dissolved in either 10% methanol/water (v/v) or 100% DMSO to a final stock concentration of 5 mg/ml.
(§9) Compounds are then diluted 1/10 in H2O to a test conc of 500 ug/ml ready for immediate use, or storage at −20° C.
(§10) Grow up an o/n starter culture of Staphylococcus aureus and each VRE strain by diluting previous culture (stored at 4° C.) 1/1000 into −50 mls Luria Broth (LB) for S. aureus or Enterococossel Broth (EB) for the VRE strains.
(§11) Incubate o/n at 37° C.+shaking. • A glycerol stock (0.6 mls bacterial culture, 0.3 mls glycerol) of each strain is kept at −80° C. if needed. Assay Set Up:
(§12) In a 96well round bottom plate add 50 ul LB/well for the S. aureus plate and add 50 ul EB/well for the VRE plates.
(§13) Add 50 ul of compound dilution (500 ug/ml test conc) to each of three top row wells (ie: tested in triplicate) and dilute 1 in 2 from the top row to the bottom row.
(§14) After the compound dilution, add to each well 50 ul of a 1/1000 dilution of the appropriate overnight bacterial culture, either S. aureus or the different VRE strains.
(§15) Plates are incubated at 37° C. on a slowly rotating plate incubator. • test concentrations are (in ug/ml) 125, 62.5, 31.25, 15.6, 7.8, 3.9, 1.9, 0.98 • final DMSO concentration in the first row of wells of the assay is 2.5% • Vancomycin is included in the assay (in triplicate) at a starting test concentration of 5 ug/ml for S. aureus and 125 ug/ml for the VRE strains Reading Results of Assay:
(§16) After incubation for 24 hrs the plates are removed and read. Inhibition of bacterial growth is indicated by lack of bacterial pellet or a clear well. In the VRE plates bacterial growth is indicated by black coloured media (EB) as well as a bacterial pellet.
(§17) Untreated control wells are included in the assay to check they all contain bacterial pellets. Uninoculated untreated control wells are included to check they all contain clear medium.
(§18) The plates are analysed for MIC and the results tabulated.

[3] = system: #449 E. faecium van B ST17; assay: Antibacterial assay (MIC), VRE strain #449, Enterococossel Broth, Example 1; type: cell-based, Enterococcus faecium; details: Enterococcus faecium; Example 1 compounds; VRE #449 E. faecium van B; 24 hrs, 37° C.; read-out: 449 (minimum inhibitory concentration)
Description: as §6
(§19) VRE strains: #243 E. faecium van B ST17 #449 E. faecium van B ST17
as §8, §9, §10, §11, §12, §13, §14, §15, §16, §17, §18

[4] = system: Staphylococcus aureus (ATCC 6538P); assay: Antibacterial assay (MIC), Staphylococcus aureus ATCC 6538P, Luria Broth, Example 1; type: cell-based; details: Staphylococcus aureus, ATCC6538P; Example 1 compounds; S. aureus ATCC 6538P; 24 hrs, 37° C.; range if at least two of three values fell within it; read-out: Sa (minimum inhibitory concentration)
Description: as §6
Staphylococcus aureus (ATCC 6538P)
as §8, §9, §10, §11, §12, §13, §14, §15, §16, §17, §18

[5] = system: #243 E. faecium van B ST17; assay: Antibacterial assay (MIC), VRE strain #243, Enterococossel Broth, Example 1; type: cell-based, Enterococcus faecium; details: Enterococcus faecium; Example 1 compounds; VRE #243 E. faecium van B; 24 hrs, 37° C.; read-out: 243 (minimum inhibitory concentration)
Description: as §6, §19, §8, §9, §10, §11, §12, §13, §14, §15, §16, §17, §18

[6] = system: Staphylococcus aureus Mu50 (ATCC 700699); assay: MIC determination by micro-broth dilution (NCCLS), S. aureus Mu50; type: cell-based; details: ATCC700699, Example 1 compounds, Mueller Hinton II broth, 24 hours, 37° C.
Description: as §1, §2, §3, §4, §5

[7] = system: #820 E. faecium van A ST17; assay: Antibacterial assay (MIC), VRE strain #820, Enterococossel Broth, Example 1; type: cell-based, Enterococcus faecium; details: Enterococcus faecium; Example 1 compounds; VRE #820 E. faecium van A; 24 hrs, 37° C.; read-out: 820 (minimum inhibitory concentration)
Description: as §6, §7, §8, §9, §10, §11, §12, §13, §14, §15, §16, §17, §18

[8] = system: Multi-Drug-Resistant Staphylococcus epidermidis (ATCC 700562); assay: MIC determination by micro-broth dilution (NCCLS), multi-drug-resistant S. epidermidis; type: cell-based; details: ATCC700562, Example 1 compounds, Mueller Hinton II broth, 24 hours, 37° C.
Description: as §1, §2, §3, §4, §5

MRSA isolates = details: 43 MRSA isolates from adults with community respiratory infections; cited from earlier work
HIV integrase enzyme = molecular target: T1, HIV integrase enzyme (Human immunodeficiency virus type 1 group M subtype B, UniProt P04585); assay: HIV integrase initial screening (3′ processing function); type: biochemical; details: Example 2 compounds; Conc. 50 μg/mL; 3′ processing function of the enzyme
T1 construct: against the HIV integrase enzyme
Text: Compounds synthesized in Example 2 were additionally included in a random database screening strategy against the HIV integrase enzyme.
The compounds that were chosen to be tested against HIV integrase were 78, 81, 88 and 89 and the results are represented in Table 4.
The results for the screening of the four target molecules 165-168 against the HIV integrase enzyme yielded some encouraging results which supported the proposed mechanism of binding in the active binding trench of the HIV integrase enzyme. The testing procedure for the four target compounds differed from the original screening protocols employed. The original screening measured inhibition against the 3′ processing function of the enzyme at the fixed concentration of 50 μg/mL, whereas the four target molecules were tested in an assay adapted from a literature procedure,^107 which measures inhibition against the 3′ strand transfer function of the enzyme. This allows a result to be obtained as an inhibition constant (IC50) concentration, which is the standard measurement of inhibition within the literature. Along with the four target molecules, 88 was also re-tested in the 3′ strand transfer assay to determine the IC50 for direct comparison with the literature.

Compound	MIC [1] [µg/mL]	MIC [2] [µg/mL]	MIC [3] [µg/mL]	MIC [4] [µg/mL]	MIC [5] [µg/mL]	MIC [6] [µg/mL]	MIC [7] [µg/mL]	MIC [8] [µg/mL]	susceptibility rates (MRSA isolates) [%]	inhibition at 50 µg/mL (HIV integrase enzyme) [%]
CC(C)CCOc1ccc2ccccc2c1-c1c(OCC(=O)N[C@H](CCCCN)C(=O)N[C@H](CCCNC(=N)N)C(=O)NC2(C(=O)OCc3ccccc3)CCCCC2)ccc2ccccc12.Cl.Cl (atropisomer, axis not shown) [Compound 21]	0.99 to 15.6	15.7 to 62.5	15.7 to 62.5	0.99 to 15.6	15.7 to 62.5	0.99 to 15.6	15.7 to 62.5	0.99 to 15.6	–	–
gentamicin	–	–	–	–	–	–	–	–	86	–
C=CCOc1ccc(C[C@H](NC(C)=O)C(=O)N[C@@H](CCCNC(=N)N)C(=O)N[C@@H](CC=C)C(=O)OC)cc1 [Compound 81, Methyl(2S,5S,8S)-2-allyl-8-(4-allyloxybenzyl)-3,6,9-triaza-5-(3-[guanidino]propyl)-4,7,10-oxoundecanoate hydrochloride]	–	–	–	–	–	–	–	–	–	70
CC(C)CCOc1ccc2ccccc2c1-c1c(OCC(=O)N[C@H](CCCCN)C(=O)N[C@H](CCCNC(=N)N)C(=O)N[C@@H](CC(C)C)c2ncc(-c3ccccc3)o2)ccc2ccccc12.Cl.Cl (atropisomer, axis not shown) [Compound 16]	0.99 to 15.6	> 62.6	> 62.6	0.99 to 15.6	> 62.6	0.99 to 15.6	> 62.6	0.99 to 15.6	–	–
CC(C)CCOc1ccc2ccccc2c1-c1c(OCC(=O)N[C@H](CCCCN)C(=O)N[C@H](CCCNC(=N)N)C(=O)N[C@H](COCc2ccccc2)CC(C)C)ccc2ccccc12.Cl.Cl (atropisomer, axis not shown) [Compound 15]	0.99 to 15.6	15.7 to 62.5	15.7 to 62.5	0.99 to 15.6	15.7 to 62.5	0.99 to 15.6	15.7 to 62.5	0.99 to 15.6	–	–
CC(C)CCOc1ccc2ccccc2c1-c1c(OCCNC(=O)[C@@H](CCCCN)NC(=O)[C@@H](CCCNC(=N)N)NC(=O)[C@@H](CC(C)C)NC(=O)Cc2ccccc2)ccc2ccccc12.Cl.Cl (atropisomer, axis not shown) [Compound 30]	0.99 to 15.6	> 62.6	> 62.6	0.99 to 15.6	> 62.6	0.99 to 15.6	> 62.6	0.99 to 15.6	–	–
C=CCOc1ccc(C[C@H](NC(C)=O)C(=O)N[C@@H](CCCCN)C(=O)N[C@@H](CC=C)C(=O)OC)cc1 [Compound 78, hydrochloride]	–	–	–	–	–	–	–	–	–	15
CC(C)CCOc1ccc2ccccc2c1-c1c(OCC(=O)N[C@H](CCCCN)C(=O)N[C@H](CCCNC(=N)N)C(=O)N[C@@H](CC(C)C)C(=O)OCc2ccccc2)ccc2ccccc12.Cl.Cl (atropisomer, axis not shown) [Compound 1]	0.99 to 15.6	15.7 to 62.5	15.7 to 62.5	0.99 to 15.6	15.7 to 62.5	0.99 to 15.6	0.99 to 15.6	0.99 to 15.6	–	–
Cl.Cl.N=C(N)NCCC[C@@H](NC(=O)CCCOc1ccc2ccccc2c1-c1c(OCCCC(=O)N[C@H](CCCNC(=N)N)C(=O)OCc2ccccc2)ccc2ccccc12)C(=O)OCc1ccccc1 (atropisomer, axis not shown) [Compound 31]	0.99 to 15.6	15.7 to 62.5	15.7 to 62.5	0.99 to 15.6	15.7 to 62.5	15.7 to 62.5	15.7 to 62.5	0.99 to 15.6	–	–
CC(C)CCOc1ccc2ccccc2c1-c1c(OCC(=O)N[C@H](CCCCN)C(=O)N[C@H](CCCNC(=N)N)C(=O)N[C@@H](CC(C)C)c2nc(S(=O)(=O)O)c(-c3ccccc3)o2)ccc2ccccc12.Cl.Cl (atropisomer, axis not shown) [Compound 17]	0.99 to 15.6	15.7 to 62.5	15.7 to 62.5	< 0.98	15.7 to 62.5	0.99 to 15.6	15.7 to 62.5	0.99 to 15.6	–	–
C=CCOc1ccc(C[C@H](NC(C)=O)C(=O)N[C@@H](CCCCNC(=N)N)C(=O)N[C@@H](CC=C)C(=O)OC)cc1 [Compound 88, Methyl(2S,5S,8S)-2-allyl-9-(4-allyloxyphenyl)-5-(4-[guanidino]butyl)-3,6,9-triaza-4,7,10-trioxoundecanoate hydrochloride]	–	–	–	–	–	–	–	–	–	95
COC(=O)[C@@H]1CC=CCOc2ccc(cc2)C[C@H](NC(C)=O)C(=O)N[C@@H](CCCCNC(=N)N)C(=O)N1 [Compound 89, (7S,10S,13S,4E/Z)-13-Acetamido-10-(4-[guanidino]butyl)-8,11-diaza-7-methoxycarbonyl-2-oxa-9,12-dioxo-1(1,4)phenylenacyclotetradecaphane-4-ene hydrochloride]	–	–	–	–	–	–	–	–	–	4
